Experimental data as given in PMC6044503 (ACS Omega, 2017).
Several values for one entry are separate records, joined by “and”; a condition that tells them apart may be missing. Equal entries are not always repeated. Where a SMILES comes first, the peptide text is derived from it. [ ]: non-standard residue; d: D form. The star is where a group is joined. 2Nal = N[C@@H](Cc1ccc2ccccc2c1)C(=O)O; Cyclohexanecarbonyl = O=C(C1CCCCC1)*; Cha = N[C@@H](CC1CCCCC1)C(=O)O; Isobutyryl = CC(C)C(=O)*; Aib = CC(C)(N)C(=O)O; Bz = O=C(c1ccccc1)*

Experiments:
male C57BL/6J mice = assay: Food intake assay, bolus ip administration in lean mice; type: in vivo, mouse; conditions: for % food intake inhibition: vs saline; for % food intake inhibition / % food intake inhibition (cumulative): mean ± SD; for minimum effective dose (food intake reduction): ip administration, lean mice
human Y2R [1] = target: T1, human Y2R (Homo sapiens, UniProt P49146); assay: biochemical; type: binding
T1 sequence (P49146 1-381): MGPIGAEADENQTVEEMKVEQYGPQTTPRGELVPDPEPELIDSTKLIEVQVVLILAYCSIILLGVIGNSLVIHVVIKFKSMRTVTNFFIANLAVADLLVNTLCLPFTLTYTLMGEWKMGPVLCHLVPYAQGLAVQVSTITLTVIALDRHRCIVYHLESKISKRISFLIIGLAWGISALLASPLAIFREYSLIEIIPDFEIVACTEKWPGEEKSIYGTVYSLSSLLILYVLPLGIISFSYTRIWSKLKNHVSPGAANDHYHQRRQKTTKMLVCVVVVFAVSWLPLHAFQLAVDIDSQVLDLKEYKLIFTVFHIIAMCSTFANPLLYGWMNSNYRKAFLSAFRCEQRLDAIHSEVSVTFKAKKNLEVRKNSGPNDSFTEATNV

[2] = Stability in 20% mouse serum/PBS; type: in vitro ADME; conditions: for remaining at 0.5 h: mouse, 20% mouse serum in PBS
human Y2R [3] = target: T1, human Y2R; assay: biochemical; type: biochemical
[4] = bolus ip 1000 nmol/kg, 3 h after administration
[5] = bolus ip 250 nmol/kg, 3 h after administration
[6] = bolus ip 500 nmol/kg, 3 h after administration
[7] = bolus ip 2000 nmol/kg, 3 h after administration

SMILES | IC50 (human Y2R [1]) | remaining at 0.5 h [2] | EC50 (human Y2R [3]) | % food intake inhibition (male C57BL/6J mice; [6]) | further results
CC[C@H](C)[C@H](NC(=O)[C@H](CC1CCCCC1)NC(=O)[C@H](Cc1c[nH]cn1)NC(=O)[C@H](CCCNC(=N)N)NC(=O)c1ccccc1)C(=O)N[C@@H](CC(N)=O)C(=O)N[C@@H](CC(C)C)C(=O)N[C@H](C(=O)N[C@H](C(=O)N[C@@H](CCCNC(=N)N)C(=O)N[C@@H](CCC(N)=O)C(=O)N[C@@H](CCCNC(=N)N)C(=O)N[C@@H](CC1CCCCC1)C(N)=O)[C@@H](C)O)[C@@H](C)CC [Compound 4] (Bz-RH[Cha]INLITRQR[Cha]-NH2) | 7.2 nM | 102% | 3.6 nM |  | % food intake inhibition (male C57BL/6J mice; [4]): 34 ± 6%; metabolites in mouse serum ([2]; within 30 min in 20% mouse serum/PBS): did not yield any apparent metabolites
CC[C@H](C)[C@H](NC(=O)[C@H](CC1CCCCC1)NC(=O)[C@H](Cc1c[nH]cn1)NC(=O)[C@H](CCCNC(=N)N)NC(=O)c1ccccc1)C(=O)N[C@@H](CC(N)=O)C(=O)N[C@@H](Cc1c[nH]c2ccccc12)C(=O)N[C@H](C(=O)N[C@H](C(=O)N[C@@H](CCCNC(=N)N)C(=O)N[C@@H](CCC(N)=O)C(=O)N[C@@H](CCCNC(=N)N)C(=O)N[C@@H](CC1CCCCC1)C(N)=O)[C@@H](C)O)[C@@H](C)CC [Compound 5] (Bz-RH[Cha]INWITRQR[Cha]-NH2) | 9.8 nM | 93% | 2.3 nM | 8 ± 7% | % food intake inhibition (male C57BL/6J mice; [5]): 10 ± 4%; % food intake inhibition (male C57BL/6J mice; [4]): 40 ± 2%; % food intake inhibition (male C57BL/6J mice; [7]): 65 ± 5%
CC[C@H](C)[C@H](NC(=O)[C@H](Cc1ccc(O)cc1)NC(=O)[C@H](C)NC(=O)[C@H](CCCNC(=N)N)NC(=O)c1ccccc1)C(=O)N[C@@H](CC(N)=O)C(=O)N[C@@H](CC(C)C)C(=O)N[C@H](C(=O)N[C@H](C(=O)N[C@@H](CCCNC(=N)N)C(=O)N[C@@H](CCC(N)=O)C(=O)N[C@@H](CCCNC(=N)N)C(=O)N[C@@H](CC1CCCCC1)C(N)=O)[C@@H](C)O)[C@@H](C)CC [Compound 2] (Bz-RAYINLITRQR[Cha]-NH2) | 3.2 nM | 53% | 1.1 nM |  | % food intake inhibition (male C57BL/6J mice; [7]): 21 ± 5%
CC[C@H](C)[C@H](NC(=O)[C@H](CC1CCCCC1)NC(=O)[C@H](Cc1c[nH]cn1)NC(=O)[C@H](CCCNC(=N)N)NC(=O)c1ccccc1)C(=O)N[C@@H](CC(N)=O)C(=O)N[C@@H](Cc1c[nH]c2ccccc12)C(=O)NC(C)(C)C(=O)N[C@H](C(=O)N[C@@H](CCCNC(=N)N)C(=O)N[C@@H](CCC(N)=O)C(=O)N[C@@H](CCCNC(=N)N)C(=O)N[C@@H](CC1CCCCC1)C(N)=O)[C@@H](C)O [Compound 11] (Bz-RH[Cha]INW[Aib]TRQR[Cha]-NH2) | 11 nM | 95% | 2.4 nM | 12 ± 3% | % food intake inhibition (male C57BL/6J mice; [4]): 36 ± 8%; % food intake inhibition (male C57BL/6J mice; [7]): 52 ± 5%
CC(C)C[C@H](NC(=O)[C@H](CC(N)=O)NC(=O)[C@H](CC1CCCCC1)NC(=O)[C@H](CC1CCCCC1)NC(=O)[C@H](Cc1c[nH]cn1)NC(=O)[C@H](CCCNC(=N)N)NC(=O)c1ccccc1)C(=O)NC(C)(C)C(=O)N[C@H](C(=O)N[C@@H](CCCNC(=N)N)C(=O)N[C@@H](CCC(N)=O)C(=O)N[C@@H](CCCNC(=N)N)C(=O)N[C@@H](CC1CCCCC1)C(N)=O)[C@@H](C)O [Compound 21, benzoyl-[Cha^27,28,36,Aib^31]PYY(25–36)] (Bz-RH[Cha][Cha]NL[Aib]TRQR[Cha]-NH2) |  |  |  | 49% and 49 ± 4% | % food intake inhibition (male C57BL/6J mice; [5]): 32 ± 3%; % food intake inhibition (cumulative) (male C57BL/6J mice; ip 3 nmol/kg, 3 h after administration): –1 ± 6%; % food intake inhibition (cumulative) (male C57BL/6J mice; ip 3 nmol/kg, 6 h after administration): –1 ± 2%; % food intake inhibition (cumulative) (male C57BL/6J mice; ip 3 nmol/kg, 24 h after administration): –7 ± 5%; % food intake inhibition (cumulative) (male C57BL/6J mice; ip 30 nmol/kg, 3 h after administration): 20 ± 6%; % food intake inhibition (cumulative) (male C57BL/6J mice; ip 30 nmol/kg, 6 h after administration): 18 ± 3%; % food intake inhibition (cumulative) (male C57BL/6J mice; ip 30 nmol/kg, 24 h after administration): –2 ± 3%; % food intake inhibition (cumulative) (male C57BL/6J mice; ip 300 nmol/kg, 3 h after administration): 47 ± 3%; % food intake inhibition (cumulative) (male C57BL/6J mice; ip 300 nmol/kg, 6 h after administration): 45 ± 2%; % food intake inhibition (cumulative) (male C57BL/6J mice; ip 300 nmol/kg, 24 h after administration): 8 ± 3%; minimum effective dose (food intake reduction) (male C57BL/6J mice; food intake 3 and 6 h after dosing): 30 nmol/kg; minimum effective dose (food intake reduction) (male C57BL/6J mice; mass equivalent of 30 nmol/kg): ca. 52 μg/kg; binding affinity, fold lower than that of PYY3–36 (human Y2R [1]): more than 10 fold; agonist activity, fold lower than that of PYY3–36 (human Y2R [3]): more than 10 fold
C[C@@H](O)[C@H](NC(=O)C(C)(C)NC(=O)[C@H](Cc1c[nH]c2ccccc12)NC(=O)[C@H](CC(N)=O)NC(=O)[C@H](CC1CCCCC1)NC(=O)[C@H](CC1CCCCC1)NC(=O)[C@H](Cc1c[nH]cn1)NC(=O)[C@H](CCCNC(=N)N)NC(=O)C1CCCCC1)C(=O)N[C@@H](CCCNC(=N)N)C(=O)N[C@@H](CCC(N)=O)C(=O)N[C@@H](CCCNC(=N)N)C(=O)N[C@@H](CC1CCCCC1)C(N)=O [Compound 27] (Cyclohexanecarbonyl-RH[Cha][Cha]NW[Aib]TRQR[Cha]-NH2) | 8.9 nM |  | 2.2 nM | 12 ± 8% | 
CC[C@H](C)[C@H](NC(=O)[C@H](CC1CCCCC1)NC(=O)[C@H](Cc1c[nH]cn1)NC(=O)[C@H](CCCNC(=N)N)NC(=O)C1CCCCC1)C(=O)N[C@@H](CC(N)=O)C(=O)N[C@@H](CC(C)C)C(=O)NC(C)(C)C(=O)N[C@H](C(=O)N[C@@H](CCCNC(=N)N)C(=O)N[C@@H](CCC(N)=O)C(=O)N[C@@H](CCCNC(=N)N)C(=O)N[C@@H](CC1CCCCC1)C(N)=O)[C@@H](C)O [Compound 16] (Cyclohexanecarbonyl-RH[Cha]INL[Aib]TRQR[Cha]-NH2) | 4.9 nM |  | 1.6 nM | 5 ± 13% | 
CC(C)C[C@H](NC(=O)[C@H](CC(N)=O)NC(=O)[C@H](CC1CCCCC1)NC(=O)[C@H](CC1CCCCC1)NC(=O)[C@H](Cc1c[nH]cn1)NC(=O)[C@H](CCCNC(=N)N)NC(=O)C(C)C)C(=O)NC(C)(C)C(=O)N[C@H](C(=O)N[C@@H](CCCNC(=N)N)C(=O)N[C@@H](CCC(N)=O)C(=O)N[C@@H](CCCNC(=N)N)C(=O)N[C@@H](CC1CCCCC1)C(N)=O)[C@@H](C)O [Compound 23] (Isobutyryl-RH[Cha][Cha]NL[Aib]TRQR[Cha]-NH2) | 3.1 nM |  | 1.2 nM | 20 ± 11% | % food intake inhibition (male C57BL/6J mice; [5]): 14 ± 7%
CC(C)C[C@H](NC(=O)[C@H](CC(N)=O)NC(=O)[C@H](CC1CCCCC1)NC(=O)[C@H](CC1CCCCC1)NC(=O)[C@H](Cc1c[nH]cn1)NC(=O)[C@H](CCCNC(=N)N)NC(=O)C1CCCCC1)C(=O)NC(C)(C)C(=O)N[C@H](C(=O)N[C@@H](CCCNC(=N)N)C(=O)N[C@@H](CCC(N)=O)C(=O)N[C@@H](CCCNC(=N)N)C(=O)N[C@@H](CC1CCCCC1)C(N)=O)[C@@H](C)O [Compound 22] (Cyclohexanecarbonyl-RH[Cha][Cha]NL[Aib]TRQR[Cha]-NH2) | 11 nM |  | 4 nM | 25 ± 7% | 
CC[C@H](C)[C@H](NC(=O)[C@H](Cc1c[nH]c2ccccc12)NC(=O)[C@H](CC(N)=O)NC(=O)[C@H](CC1CCCCC1)NC(=O)[C@H](CC1CCCCC1)NC(=O)[C@H](Cc1c[nH]cn1)NC(=O)[C@H](CCCNC(=N)N)NC(=O)C1CCCCC1)C(=O)N[C@H](C(=O)N[C@@H](CCCNC(=N)N)C(=O)N[C@@H](CCC(N)=O)C(=O)N[C@@H](CCCNC(=N)N)C(=O)N[C@@H](CC1CCCCC1)C(N)=O)[C@@H](C)O [Compound 14] (Cyclohexanecarbonyl-RH[Cha][Cha]NWITRQR[Cha]-NH2) | 15 nM |  | 11 nM | 23 ± 7% | 
CC(C)C[C@H](NC(=O)[C@H](CC(N)=O)NC(=O)[C@H](CC1CCCCC1)NC(=O)[C@H](Cc1ccc2ccccc2c1)NC(=O)[C@H](Cc1c[nH]cn1)NC(=O)[C@H](CCCNC(=N)N)NC(=O)C1CCCCC1)C(=O)NC(C)(C)C(=O)N[C@H](C(=O)N[C@@H](CCCNC(=N)N)C(=O)N[C@@H](CCC(N)=O)C(=O)N[C@@H](CCCNC(=N)N)C(=O)N[C@@H](CC1CCCCC1)C(N)=O)[C@@H](C)O [Compound 29] (Cyclohexanecarbonyl-RH[2Nal][Cha]NL[Aib]TRQR[Cha]-NH2) | 18 nM |  | 14 nM | 28 ± 8% | 
CC(C)C[C@H](NC(=O)[C@H](CC(N)=O)NC(=O)[C@H](Cc1c[nH]c2ccccc12)NC(=O)[C@H](CC1CCCCC1)NC(=O)[C@H](Cc1c[nH]cn1)NC(=O)[C@H](CCCNC(=N)N)NC(=O)c1ccccc1)C(=O)NC(C)(C)C(=O)N[C@H](C(=O)N[C@@H](CCCNC(=N)N)C(=O)N[C@@H](CCC(N)=O)C(=O)N[C@@H](CCCNC(=N)N)C(=O)N[C@@H](CC1CCCCC1)C(N)=O)[C@@H](C)O [Compound 18] (Bz-RH[Cha]WNL[Aib]TRQR[Cha]-NH2) | 6.4 nM |  | 1.6 nM | 2 ± 8% | 
